“Also recorded” adds a separate entry of the source. Where two headings read alike, the source gives them in different places.
Tests used:
[1] = tested on: human dopaminergic neurons (iCell DopaNeurons); assay: MPP+-induced neurotoxicity: neurite outgrowth (neurite length, branch points) of iCell DopaNeurons, Incucyte; type: cell-based; settings: for effects on neurite outgrowth: vs MPP+ alone
Excerpt: (§1) We conducted an in vitro study of the drugs in Table 1 to evaluate the neuroprotective effects of 44 conditions of treatment (Table 2, experiments 1-41; 51-53) against MPP+-induced neurodegeneration toxicity on human dopaminergic neurons (iCell® DopaNeurons: iPS cell-derived human midbrain floorplate dopaminergic neurons). Further combinations (Table 2, experiments 42-50 and Table 3) are also disclosed.
iCell DOPA neurons are neural floor plate-derived midbrain dopaminergic neurons generated from human induced pluripotent stem cells (iPSCs). Dopaminergic neurons, specifically those located in the floor plate-derived midbrain are implicated in neurological disorders such as Parkinson's disease, MSA and DLBD among others. Thus iCell DopaNeurons provide a highly relevant in vitro model to investigate these types of pathologies (42, 43). The iCellDopa neurons were supplied from FUJIFILM Cellular Dynamics.
(§2) Three different measurements were made in the experiments. 1. Neurite length in mm is a measure of increase in dendrite length of neurons. […] 2. neurite branching is measure of dendrite branching. […] 3. Cytolysis of the cells is a measure of cell death. […] Experimental conditions were measured relative to the results of healthy cells in the studies.
(§3) Procedure. iCell DOPA neurons were thawed and cultured following the provider's instructions in Brainphys medium+provided supplements+1% N2 supplement (Stemcell Technologies)+penicillin/streptomycin+Laminin. They were plated at 20000 cells per well of a 384 well plate (pre-coated with poly-D-lysine and Laminin) in 70 μL of growth medium. Cells were incubated at 37° C./5% CO2 in a humidified cell culture incubator. Half of the culture medium was changed twice a week.
(§4) MPP+-induced neurotoxicity: 24 hours after neuronal plating, half of the medium was removed and the test compounds were applied with MPP+ treatment, both concentrated at 4×, were added to the wells. For each condition, six aliquots were added, corresponding to columns A-F in Table 2. Except for the NT/NT row, in each row, either the compound indicated dissolved in its vehicle noted in Table 1 was added, or only a vehicle was added as indicated. Column F is an indicator of whether MPP+ was added. If not, only the medium was added.
(§5) For the evaluation of conditions 1-28, Neurite outgrowth was followed for subsequent 48 hours using an Incucyte Zoom platform with one phase contrast image every 4 hours, using a 20× objective. After 48 hours, the medium containing test compounds and MPP+ was removed and replaced by fresh medium containing a fluorescent cytolysis marker (red fluorescence) and a live cell marker (green fluorescence). For the evaluation of conditions 29-53, Neurite outgrowth was followed similarly for subsequent 72 hours after MPP+ was added.
Each condition 1-41 and 51-53 was repeated in 8 wells of a 384 well plate, that is, each test condition studied in Table 2 was repeated eight times. NT/NT were cells in the standard medium only. Control/NT are the cells in the vehicle (as described above), with and without MPP+.
Assay endpoints and data analysis. Phase contrast images were analyzed at each time point to determine the neurite length and number of branch points per mm^2. Kinetic data was plotted and kinetics were normalized by subtracting the value of the first data point (at time of treatment), allowing to measure changes in neurite outgrowth only from the onset of the treatment, starting at zero. Area Under Curve (AUC) of kinetic data was obtained and used for plotting compound's effects and perform statistical analyzes.
(§6) Statistical analysis. We used one-way ANOVA followed by Bonferroni's multiple comparisons test.

[2] = tested on: human dopaminergic neurons (iCell DopaNeurons); assay: MPP+-induced neurotoxicity: cytolysis of iCell DopaNeurons; type: cell-based
Excerpt: as §1, §2, §3, §4, §5
Data was normalized to control conditions as there is basal cytolysis in the cell culture after thawing.
Fluorescently immuno-stained cells were imaged on a high content imaging platform. Individual segmentation of cells was performed by image analysis of the MAP2 and NeuN staining. The number of neurons and the neurite length were measured. The percentage of cytolyzed cells was also calculated.
as §6

IL-6 = assay: LPS/ATP-induced IL-6 secretion by human microglia cells (Luminex); type: cell-based; settings: for anti-inflammatory effect on activated microglia, all three cytokines: LPS and ATP, IL-6, TNF-α, GROα together (FIG. 8, 9, 10)
Excerpt: (§7) In addition to the studies discussed above assessing activity of combinations of drugs on MPP+-induced neurodegeneration toxicity on human dopaminergic neurons and measuring neuronal growth and neurite branching, we also assessed combinations of drugs in reducing lipopolysaccharide (LPS, from E. coli)-induced neuroinflammation.
(§8) Lipopolysaccharides are important outer membrane components of gram-negative bacteria such as E. coli and salmonella. They are large amphipathic glycoconjugates that typically consist of a lipid domain (hydrophobic) attached to a core oligosaccharide and a distal polysaccharide. LPS binds to Toll-like receptor 4 (TLR4) and activates microglia (51) which in turn increases secretion of pro-inflammatory cytokines such as interleukin-6 (IL-6), tumor necrosis factor-α (TNF-α), and CXCL1/GROα.
(§9) Microglia cells were obtained from an iCell® Microglia kit, 01279 (Catalogue N° R1131) from FUJIFILM Cellular Dynamics. We followed the manufacturer's protocol for activation of the microglial cells with LPS/ATP to subsequently measure the effect of the study drugs on pro-inflammatory cytokines IL-6, TNF-α and CXCL1/GROα.
(§10) All cell culture procedures were performed in aseptic conditions, under a laminar flow hood. Microglia were thawed and cultured following the provider's instructions. The microglia were plated at 50,000 cells per well of a Corning Primaria 96 well plate (Ref N° 353872) in 100 μL of growth medium. Cells were incubated at 37° C./5% CO2 in a humidified cell culture incubator.
(§11) Three days after cell plating, the test or reference substances (25 μL of solutions at 5×) were applied 1 hour before LPS and ATP stimulation.
(§12) One hour later, 12.5 μL of test or reference substances were added again at 2× concentrated followed by 12.5 μL of LPS at 12× concentration. Fifty microliters of ATP were introduced at 4× concentration, 5 h 30 min after incubation with LPS.
(§13) Six hours after LPS incubation, the supernatant of each well was collected and centrifugated at 1000 g for 10 minutes to remove the cells and debris.
(§14) Fifty microliters of supernatant from NT and LPS+ATP-treated wells were used to determine cytokine secretion (IL-6, TNF-α, CXCL1/GROα) by Luminex platform according to the provider's instructions. Samples were diluted prior to the assay to fit within the standard range if needed. Three wells were tested per each condition (Table 10). Cytokines levels in the supernatant were expressed in pg/mL. The data was analyzed using a One-Way ANOVA followed by Bonferroni test.

TNF-α = assay: LPS/ATP-induced TNF-α secretion by human microglia cells (Luminex); type: cell-based
Excerpt: as §7, §8, §9, §10, §11, §12, §13, §14

IL-1β = assay: LPS/ATP-induced IL-1β in human microglia cells; type: cell-based; settings: as compared with […] distilled water in presence of LPS and ATP
CXCL1/GROα = assay: LPS/ATP-induced CXCL1/GROα secretion by human microglia cells (Luminex); type: cell-based
Excerpt: as §7, §8, §9, §10, §11, §12, §13, §14

PrP = settings: cell-free aggregation assays, chronically and acutely infected cell cultures; cited from earlier work
[3] = pre-treatment 50 mg/kg for 3 days; cited from earlier work
[4] = chronic PD and DLBD mouse models; cited from earlier work
[5] = as compared with […] distilled water in presence of LPS and ATP
[6] = MPP+ 100 μM, Table 6.1 (FIG. 6A), followed 72 hours, PCI 30 μM
[7] = MPP+ 100 μM, Table 7.1 (FIG. 6B), followed 72 hours, PCI 30 μM
[8] = MPP+ 100 μM, Table 8.1 (FIG. 6C), PCI 30 μM
[9] = LPS 100 ng/mL + ATP 5 mM, 6 h after LPS, TAK-242 2 μM, MCC950 10 μM
[10] = LPS 100 ng/mL + ATP 5 mM, 6 h after LPS, three wells, TAK-242 2 μM, MCC950 10 μM

Nc1c(Br)cc(Br)cc1CN[C@H]1CC[C@H](O)CC1 [AMB, Ambroxol]
Neurite Length Data, Mean ± S.D. ([1]; MPP+ 100 μM, Table 5.1 (FIG. 5A), conditions 17-28, AUC of kinetic data): 763.9 ± 209.8 mm/mm^2 | Neurite Branching Data, Mean ± S.D. ([1]; MPP+ 100 μM, Table 5.2 (FIG. 5B), conditions 17-28, AUC of kinetic data): 20281.6 ± 8723.4 per mm^2 | Neurite length, plate 2, Mean ± S.D. ([1]; MPP+ 100 μM, Table 6.2 (FIG. 7A), followed 72 hours, PCI 30 μM): 1332.1 ± 174.8 mm/mm^2 | effects on neurite outgrowth ([1]; MPP+ 100 μM): no significant effects | Cytolysis, %, Plate 2, Mean ± S.D. ([2]; MPP+ 100 μM, Table 8.2 (FIG. 7C), PCI 30 μM): 73.29 ± 2.23%

CC(C)(O)c1coc(S(=O)(=O)NC(=O)Nc2c3c(cc4c2CCC4)CCC3)c1 [MCC950]
concentration of IL-6 (IL-6; [5]): significantly decreased | concentration of TNF-α (TNF-α; [5]): significantly decreased | concentration of IL-1β (IL-1β): significantly decreased

CC(C)[C@H](NC(=O)c1ccc2ccccc2n1)C(=O)N[C@@H](CC(=O)O)C(=O)COc1c(F)cccc1F [PCI/MPP+, Q-VD-OPh]
Neurite Branching Data, Plate 1, Mean ± S.D. [1]: 38456.3 ± 11570.7 per mm^2 | Neurite Branching Data, Plate 2, Mean ± S.D. [1]: 52610.1 ± 16660.1 per mm^2 | Neurite length data, plate 1, Mean [1]: 1301.0 mm/mm^2 | Neurite length, plate 2, Mean ± S.D. [1]: 1430.1 ± 321.7 mm/mm^2 | Cytolysis, %, Plate 1, Mean ± S.D. [2]: 65.56 ± 1.89% | Cytolysis, %, Plate 2, Mean ± S.D. [2]: 67.93 ± 3.52%

CCOC(=O)C1=CCCC[C@H]1S(=O)(=O)Nc1ccc(F)cc1Cl [TAK-242]
concentration of IL-6 (IL-6; [5]): significantly decreased | concentration of TNF-α (TNF-α; [5]): significantly decreased | concentration of GROα (CXCL1/GROα; [5]): significantly decreased | concentration of IL-1β (IL-1β): significantly decreased

C[C@H](CCC(=O)NCCS(=O)(=O)O)[C@H]1CC[C@H]2[C@@H]3[C@@H](O)C[C@@H]4C[C@H](O)CC[C@]4(C)[C@H]3CC[C@]12C [TUDCA, tauroursodeoxycholic acid]
Neurite length data, plate 1, Mean [1, 6]: 1825.9 mm/mm^2 | Neurite Branching Data, Plate 1, Mean ± S.D. [1, 7]: 58836.3 ± 9596.4 per mm^2 | neurite length increased as compared with MPP+ alone ([1]; MPP+ 100 μM, conditions 29-53, followed 72 hours (FIG. 6A, 7A)): 43% | number of branches increased as compared with MPP+ alone ([1]; MPP+ 100 μM, conditions 29-53, followed 72 hours (FIG. 6B, 7B)): 60% | Cytolysis, %, Plate 1, Mean ± S.D. [2, 8]: 70.69 ± 2.02% | anti-inflammatory effect on activated microglia, all three cytokines (IL-6): Anti-inflammatory effects of the individual drugs were observed | PrP conversion (PrP): substantially reduced PrP conversion | neurodegeneration of the nigral dopaminergic neurons caused by MPTP [3]: significantly reduced neurodegeneration

COc1cc2nc(N3CCN(C(=O)C4CCCO4)CC3)nc(N)c2cc1OC (stereo not drawn) [TZ, Terazosin]
Neurite length data, plate 1, Mean [1, 6]: 1102.2 mm/mm^2 | Neurite Branching Data, Plate 1, Mean ± S.D. [1, 7]: 31244.4 ± 12478.9 per mm^2 | effects on neurite outgrowth ([1]; MPP+ 100 μM): no significant effects | Cytolysis, %, Plate 1, Mean ± S.D. [2, 8]: 72.78 ± 2.29%

Sodium Phenylbutyrate [PBA]
Neurite Branching Data, Plate 1, Mean ± S.D. [1]: 46742.8 ± 7107.5 per mm^2 | Neurite length - Baseline-corrected AUC (0-72 h), Mean [1]: 853.7 mm/mm^2 | Neurite length data, plate 1, Mean [1]: 1681.1 mm/mm^2 | Number of branch points per mm^2 - Baseline-corrected AUC (0-72 h), Mean [1]: 41712.8 per mm^2 | number of branches as compared with MPP+ alone [1]: significantly increased | number of branches increased as compared with MPP+ alone (control/MPP+) [1]: 89% | protective effect against MPP+ [1]: showed the protective effect, but to a substantially lesser effect than when combined; also recorded: showed protective effect, but it was not statistically significant | Cytolysis, %, Plate 1, Mean ± S.D. [2]: 72.06 ± 1.77% | IL-6 in supernatant, Replicate 1 (IL-6; [9]): 396.23 pg/mL | IL-6 in supernatant, Replicate 2 (IL-6; [9]): 363.94 pg/mL | IL-6 in supernatant, Replicate 3 (IL-6; [9]): 305.53 pg/mL | IL-6 in supernatant, Mean ± S.D. (IL-6; [10]): 355.23 ± 45.97 pg/mL | anti-inflammatory effect on activated microglia, all three cytokines (IL-6): Anti-inflammatory effects of the individual drugs were observed | decrease of IL-6 concentration (IL-6; [5]): 49% | TNF-α in supernatant, Replicate 1 (TNF-α; [9]): 32.67 pg/mL | TNF-α in supernatant, Replicate 2 (TNF-α; [9]): 35.47 pg/mL | TNF-α in supernatant, Replicate 3 (TNF-α; [9]): 32.24 pg/mL | TNF-α in supernatant, Mean ± S.D. (TNF-α; [10]): 33.46 ± 1.75 pg/mL | decrease of TNF-α concentration (TNF-α; [5]): 44% | CXCL1/GROα in supernatant, Replicate 1 (CXCL1/GROα; [9]): 627.29 pg/mL | CXCL1/GROα in supernatant, Replicate 2 (CXCL1/GROα; [9]): 383.60 pg/mL | CXCL1/GROα in supernatant, Replicate 3 (CXCL1/GROα; [9]): 476.49 pg/mL | CXCL1/GROα in supernatant, Mean ± S.D. (CXCL1/GROα; [10]): 495.79 ± 122.99 pg/mL | disease progression [4]: halted the disease progression
